The results in this text go back to patent US7807368B2, “Cyclin-dependent kinase inhibitors as targets for opiod growth factor treatment” (priority 2006, dated 2010).

Entries after “also recorded” stand apart in the source; their conditions may differ.

Test [1] has as its system p16. Briefly: Western blot of p16, other CKIs and Cdk4 in SCC-1 cells. Format: cell-based, human. As for the experimental part:
Synchronized cells (˜2×10^6) from each treatment were solubilized in 200 μl RIPA buffer (1×PBS, 10 μM IGEPAL, 1 mg/ml SDS, 5 mg/ml deoxycholic acid), containing protease and phosphatase inhibitors (2 μg/ml aprotinin, 3 mg/ml phenylmethyl sulfonyl fluoride (PMSF), 1 mM sodium orthovanidate, 1 μM okadaic acid). Total protein concentrations were measured using the DC protein assay kit (Bio-Rad Laboratories, Hercules, Calif.). Equal amounts of protein (40 μg) were subjected to 10% SDS-PAGE followed by transfer of proteins onto polyvinylidene difluoride (Millipore, Billerica, Mass.) using standard protocols. The following antibodies were purchased from commercial sources: phospho-Rb (Ser795), phospho-Rb (Ser807/811) (Cell Signaling Technology, Beverly, Mass.); phospho-Rb (Thr821) (Biosource, Camarillo, Calif.); Cdk4, cyclin D1, p15, p16, p18, p19 (Santa Cruz Biotechnology, Santa Cruz, Calif.); total Rb, p21, p27 (BD PharMingen, San Diego, Calif.); β-actin (Clone AC-15, Sigma). The following dilutions of primary antibodies were used to detect respective proteins. 1:200 phospho-Rb (Ser795), 1:200 phospho-Rb (Ser807/811); 1:200 phospho-Rb (Thr821); 1:200 Cdk4, 1:200 cyclin D1, 1:100 p16; 1:200 total Rb, 1:200 p21, 1:100 p27. Membranes were probed with secondary anti-rabbit or anti-mouse horseradish peroxidase-conjugated antibodies (GE Healthcare-Amersham Biosciences, Piscataway, N.J.); blots were developed using a chemiluminescence Western blotting detection system (GE Healthcare-Amersham Biosciences).
To determine equal loading of total protein samples, blots were reprobed with monoclonal antibody against β-actin at a dilution of 1:2000. If necessary, membranes were stripped in stripping buffer (62.5 mM Tris-HCl and 100 mM β-mercaptoethanol/2% SDS, pH 6.7) at 50° C. before being re-probed. Means and SE were determined from 3 or more independent experiments.
To quantify expression levels or kinase activity, the optical density of each band was determined by densitometry and analyzed by QuickOne (Bio-Rad Laboratories). Each value was normalized to β-actin from the same blot. To report the changes due to OGF treatment, the fold increase was calculated by dividing the normalized value from the OGF treated samples by the normalized value of control samples at each time point; thus, increases due to OGF have values greater than one, and decreases due to OGF have values less than one.
(§1) The p16-targeted siRNAs (antisense:5′ […]-3′; sense (SEQ ID NO:5): 5′ […]-3′(SEQ ID NO:6) were obtained as ready-annealed, purified duplex probes (Invitrogen, Carlsbad, Calif.). For transfection, 2×10^5 cells per well were seeded in 6-well plates containing 1 ml of serum-free media without antibiotics. In each well, 20 nM of p16-siRNA or control siRNA solutions in serum-free media were added. Cells were incubated for 4 h at 37° C. prior to the addition of OGF. Cultures were incubated for additional 20 h, and then 1 ml fresh complete media either lacking or containing OGF was added. At the indicated time points, cells were collected for growth curves or Western blotting. Three or more independent experiments were conducted. The control siRNAs were purchased from Ambion.

In test [2] the test system is SCC-1 cells. As to the kind of experiment: Growth of SCC-1 cells transfected with p16 siRNA or negative control siRNA. Format: cell-based, human. The conditions noted are these: 10^-6 M OGF; for reduction in growth: negative control siRNA-transfected SCC-1 cells. The procedure:
as §1

Test [3] concerns p16. Briefly: Western blot of p16 in SCC-4 cells. Format: cell-based, human. The note with it: SCC-4 cells, 3 h. The procedure: The SCC-1 (UM-SCC-1) cell line was obtained from the University of Michigan Cancer Research Laboratory, and CAL-27 and SCC-4 cells were obtained from the American Type Culture Collection (Manassas, Va.). SCC-1 and CAL-27 cells were cultured in DMEM media, whereas SCC-4 cells were grown in 1:1 Hams F-12 DMEM media. All media was supplemented with 10% fetal bovine serum (HyClone, Logan, Utah), 1.2% sodium bicarbonate, and 5000 units/ml penicillin, 5 μg/ml streptomycin and 10 μg/ml neomycin. OGF was purchased from Sigma-Aldrich (St. Louis, Mo.), dissolved in sterile water, and used at a final concentration of 10^−6 M.
Synchronized cells (˜2×10^6) from each treatment were solubilized in 200 μl RIPA buffer (1×PBS, 10 μM IGEPAL, 1 mg/ml SDS, 5 mg/ml deoxycholic acid), containing protease and phosphatase inhibitors (2 μg/ml aprotinin, 3 mg/ml phenylmethyl sulfonyl fluoride (PMSF), 1 mM sodium orthovanidate, 1 μM okadaic acid). Total protein concentrations were measured using the DC protein assay kit (Bio-Rad Laboratories, Hercules, Calif.). Equal amounts of protein (40 μg) were subjected to 10% SDS-PAGE followed by transfer of proteins onto polyvinylidene difluoride (Millipore, Billerica, Mass.) using standard protocols. […]

The subject of test [4] is Normal Human Neo-Epidermal Keratinocyte cells (NHEK). As to the kind of experiment: Growth of NHEK cells. Format: cell-based. The conditions noted are these: 10^-6 M OGF. The procedure:
OGFr is required for OGF action on growth. Normal Human Neo-Epidermal Keratinocyte cells (NHEK) were transfected with OGFr siRNAs or control siRNAs for 72 h in the presence of 10^−6 M OGF, 10^−6 M NTX, or sterile water. Cells were harvested at 72 h and counted with a hemacytometer. Data represent means±SE for 2 independent experiments. Cell numbers differed from wt cells or cells transfected with the negative control siRNA and treated with sterile water at p<0.05 (*), p<0.01 (**), or […]. […] At 72 hr, OGF-treated cultures had 20% fewer cells and at 96 hr, OGF-treated cultures had 32% fewer cells than sterile-water treated control cultures.

Test [5] concerns human umbilical vein endothelial cells (HUVEC). Briefly: Growth of HUVEC. Format: cell-based. An excerpt: Another normal cell line, human umbilical vein endothelial cells (HUVEC) has been subjected to OGF exposure. […] At 96 hr, OGF-treated cultures had 45.9% fewer cells than normal cultures.
Test [6] deals with SCC-1 cells. Briefly: siRNA knockdown of OGFr, growth of SCC-1 cells. The note with it: 10^-6 M; for depression of growth: 96 h. Format: cell-based, human. As for the experimental part: siRNA knockdown of OGFr. […] For transfection, 5×10^4 cells per well were seeded in 6-well plates containing 1 ml of serum-containing media without antibiotics. In each well, 20 nM OGFr-siRNA or control siRNA solutions in serum-free media were added. Cells were incubated for 4 h at 37° C. prior to the addition of OGF. Cultures were incubated an additional 20 h, and then 1 ml fresh complete media either lacking or containing OGF was added. […] Two independent experiments were conducted. The control siRNAs were purchased from Ambion.

Take [Met^5]-enkephalin [OGF]: in the test on p16 [1] (OGF treatment of SCCHN), the “expression of cell cycle inhibitors p15, p18, p19, p21 and p27” value is “no significant effect”. For the same substance, in the test on p16 [1] (following OGF exposure), the “expression of Cdk4 protein” value is recorded as “did not change”. Besides, in the test with p16 [1] (synchronized SCC-1 cells, 3 h, 10^-6 M OGF, 10^-5 M naloxone), the p16 expression entry is on record as “significantly upregulated; also recorded: significantly elevated”. In the test on SCC-1 cells [2] (FIG. 4 growth curves, p<0.05), the “Cell numbers vs control levels” value is listed as “significantly reduced”. Besides, the reduction in growth is on record as 24% with SCC-1 cells [2] (72 h) and 40% with SCC-1 cells [2] (96 h). Besides, the “p16 expression relative to synchronized control cells” value in the test with p16 [3] is “induced p16 expression”. The “fewer cells than control cultures” value in test [4] (72 hr) was 20%; in test [4] (96 hr) it was 32%. For the same substance, the doubling time in test [4] (growth curve data) was 57.1 h. Moreover, the “cell number relative to control cultures” value in test [5] (10^-6 M OGF, 48, 72, and 96 hr) is listed as “significant (p<0.01) reductions”. Also, the “fewer cells than normal cultures” value in test [5] (10^-6 M OGF, 96 hr) is listed as 45.9%. For the same substance, in the test on SCC-1 cells [6] (SCC-1 cells subjected to OGFr-siRNA), the “effect on growth of OGFr-siRNA cultures” value is given as “no further effects”. In addition, the results for the depression of growth in the test on SCC-1 cells [6] (control siRNA-treated SCC-1 cells) and in the test on SCC-1 cells [6] (wt SCC-1 cells) were 46% and 29%, respectively.
